Experimental findings from US20230085307A1, “PYRIDAZINONE COMPOUND AND HERBICIDE” (NISSAN CHEMICAL CORPORATION, priority 2019, published 2023) are described below.

One experiment has as its system oval-leafed pondweed. Put plainly: Test Example 1: herbicidal activity, application before weed generation under submerged conditions (Table 16, symbol C). The conditions noted are these: amount of applied herbicide 320 g/ha. It counts as in vivo, oval-leafed pondweed (Monochoria vaginalis). The gist of the method:
(§1)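 Emulsion formulation, water-diluted to set dose, was put onto the flooded surface (4 cm depth, alluvial soil) the same day weeds were sown and 2.5-leaf rice transplanted. After 3 weeks at 25-30 °C under glass, each species was rated 0 (≤5% kill) to 5 (≥90% kill).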
Take `CCOc1cc(F)ccc1-c1sc2cc(C)c(C)cc2c1-c1c(O)c(C)nn(C)c1=O` [5-103]: the “Herbicidal effect, C: oval-leafed pondweed” value was 4 (Herbicidal rate of 70% or more and less than 90%).

On to `CSc1ccc(-c2oc3ccc(F)cc3c2-c2c(O)c(C)nn(C)c2=O)cc1` [9-037], for which the “Herbicidal effect, C: oval-leafed pondweed” value was 0 (Herbicidal rate of 5% or less (almost no effect)).

In the next experiment the test system is southern crabgrass. Put plainly: Test Example 5: herbicidal effect by foliage application, plastic box (Table 20, symbol F). It is filed as in vivo, southern crabgrass (Digitaria ciliaris). The conditions noted are these: foliage application, 320 g/ha, three weeks after application. The gist of the method: (§2)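 Foliar spray test: emulsion formulation diluted in water to a set application rate, sprayed onto 14-day-old plants raised in diluvial soil at 25° C to 30° C under glass. Both herbicidal effect and crop effect rated visually three weeks later.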
`CCOc1cc(F)ccc1-c1sc2cc(C)c(C)cc2c1-c1c(O)c(C)nn(C)c1=O` [5-103]: the “herbicidal effect on southern crabgrass (F)” value was 5 (Herbicidal rate of 90% or more (almost completely withered)).

As to `CSc1ccc(-c2oc3ccc(F)cc3c2-c2c(O)c(C)nn(C)c2=O)cc1` [9-037], the “herbicidal effect on southern crabgrass (F)” value was 4 (Herbicidal rate of 70% or more and less than 90%).

The subject of another experiment is windgrass. The experiment in a line: Test Example 5: herbicidal effect by foliage application, plastic box (Table 20, symbol L). It counts as in vivo, windgrass (Apera spica-venti). The conditions noted are these: foliage application, 320 g/ha, three weeks after application. The method, boiled down:
as §2
On to `CCOc1cc(F)ccc1-c1sc2cc(C)c(C)cc2c1-c1c(O)c(C)nn(C)c1=O` [5-103], for which the “herbicidal effect on windgrass (L)” value is given as 5 (Herbicidal rate of 90% or more (almost completely withered)).

Regarding `CSc1ccc(-c2oc3ccc(F)cc3c2-c2c(O)c(C)nn(C)c2=O)cc1` [9-037], the “herbicidal effect on windgrass (L)” value is listed as 5 (Herbicidal rate of 90% or more (almost completely withered)).

Another experiment has as its system persian speedwell. Put plainly: Test Example 5: herbicidal effect by foliage application, plastic box (Table 20, symbol R). It is filed as in vivo, Persian speedwell (Veronica persica). The conditions noted are these: foliage application, 320 g/ha, three weeks after application. The method, boiled down: as §2
On to `CCOc1cc(F)ccc1-c1sc2cc(C)c(C)cc2c1-c1c(O)c(C)nn(C)c1=O` [5-103], for which the “herbicidal effect on persian speedwell (R)” value is listed as 5 (Herbicidal rate of 90% or more (almost completely withered)).

On to `CSc1ccc(-c2oc3ccc(F)cc3c2-c2c(O)c(C)nn(C)c2=O)cc1` [9-037], for which the “herbicidal effect on persian speedwell (R)” value is 5 (Herbicidal rate of 90% or more (almost completely withered)).

Another experiment relates to green foxtail. Put plainly: Test Example 4: herbicidal effect by soil treatment (Table 19, symbol G). It is filed as in vivo, green foxtail (Setaria viridis). The note with it: amount of applied herbicide 320 g/ha. The gist of the method: (§3)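 Step 1: sow seeds in sterilized diluvial soil, cover ~1.5 cm. Step 2: spray diluted emulsion onto soil surface at predetermined rate. Step 3: greenhouse, 25–30° C, three weeks. Step 4: grade effect on each plant by earlier criteria.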
In the case of `CCOc1cc(F)ccc1-c1sc2cc(C)c(C)cc2c1-c1c(O)c(C)nn(C)c1=O` [5-103], the “G: green foxtail, herbicidal effect grade” value was 3 (Herbicidal rate of 40% or more and less than 70%).

For the compound `CSc1ccc(-c2oc3ccc(F)cc3c2-c2c(O)c(C)nn(C)c2=O)cc1` [9-037], the “G: green foxtail, herbicidal effect grade” value is 1 (Herbicidal rate of 5% or more and less than 20%).

The next experiment relates to rice flat sedge. Put plainly: Test Example 3: herbicidal effect by foliage application, Wagner pot (Table 18, symbol E). The note with it: 320 g/ha. It is filed as in vivo, rice flat sedge (Cyperus iria). The gist of the method: (§4)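 Plants were sown in alluvial soil held under 0.1–0.5 cm standing water and grown 14 days in a greenhouse at 25–30 °C. An emulsifiable formulation, water-diluted to the set dose, was then sprayed onto the foliage, and effects were scored three weeks later using previously defined criteria.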
As for `CCOc1cc(F)ccc1-c1sc2cc(C)c(C)cc2c1-c1c(O)c(C)nn(C)c1=O` [5-103], the “herbicidal effect on rice flat sedge (E)” value is reported as 5 (Herbicidal rate of 90% or more (almost completely withered)).

The experiment is the same for the next values; noted with them: amount of applied herbicide 320 g/ha.
On to `CSc1ccc(-c2oc3ccc(F)cc3c2-c2c(O)c(C)nn(C)c2=O)cc1` [9-037], for which the “Herbicidal effect on E (rice flat sedge), foliage application” value is 5 (Herbicidal rate of 90% or more (almost completely withered)).

A further experiment relates to Japanese bulrush. Put plainly: Test Example 1: herbicidal activity, application before weed generation under submerged conditions (Table 16, symbol B). It is filed as in vivo, Japanese bulrush (Schoenoplectus juncoides). The conditions noted are these: amount of applied herbicide 320 g/ha. The method, boiled down:
as §1
`CCOc1cc(F)ccc1-c1sc2cc(C)c(C)cc2c1-c1c(O)c(C)nn(C)c1=O` [5-103]: the “Herbicidal effect, B: Japanese bulrush” value was 4 (Herbicidal rate of 70% or more and less than 90%).

Turning to `CSc1ccc(-c2oc3ccc(F)cc3c2-c2c(O)c(C)nn(C)c2=O)cc1` [9-037], the “Herbicidal effect, B: Japanese bulrush” value was 0 (Herbicidal rate of 5% or less (almost no effect)).

Another experiment concerns wild oat. Put plainly: Test Example 4: herbicidal effect by soil treatment (Table 19, symbol I). It is filed as in vivo, wild oat (Avena fatua). The conditions noted are these: amount of applied herbicide 320 g/ha. The gist of the method: as §3
In the case of `CCOc1cc(F)ccc1-c1sc2cc(C)c(C)cc2c1-c1c(O)c(C)nn(C)c1=O` [5-103], the “I: wild oat, herbicidal effect grade” value is reported as 0 (Herbicidal rate of 5% or less (almost no effect)).

Turning to `CSc1ccc(-c2oc3ccc(F)cc3c2-c2c(O)c(C)nn(C)c2=O)cc1` [9-037], the “I: wild oat, herbicidal effect grade” value is 0 (Herbicidal rate of 5% or less (almost no effect)).

The subject of another experiment is windgrass. The experiment in a line: Test Example 4: herbicidal effect by soil treatment (Table 19, symbol L). It counts as in vivo, windgrass (Apera spica-venti). The note with it: amount of applied herbicide 320 g/ha. The gist of the method:
as §3
In the case of `CCOc1cc(F)ccc1-c1sc2cc(C)c(C)cc2c1-c1c(O)c(C)nn(C)c1=O` [5-103], the “L: windgrass, herbicidal effect grade” value was 3 (Herbicidal rate of 40% or more and less than 70%).

Turning to `CSc1ccc(-c2oc3ccc(F)cc3c2-c2c(O)c(C)nn(C)c2=O)cc1` [9-037], the “L: windgrass, herbicidal effect grade” value is on record as 0 (Herbicidal rate of 5% or less (almost no effect)).

Another experiment deals with chickweed. Put plainly: Test Example 4: herbicidal effect by soil treatment (Table 19, symbol P). It is filed as in vivo, common chickweed (Stellaria media). The conditions noted are these: amount of applied herbicide 320 g/ha. The method, boiled down: as §3
In the case of `CCOc1cc(F)ccc1-c1sc2cc(C)c(C)cc2c1-c1c(O)c(C)nn(C)c1=O` [5-103], the “P: chickweed, herbicidal effect grade” value is 3 (Herbicidal rate of 40% or more and less than 70%).

Another experiment deals with Italian ryegrass. Put plainly: Test Example 4: herbicidal effect by soil treatment (Table 19, symbol K). The conditions noted are these: amount of applied herbicide 320 g/ha. It counts as in vivo, Italian ryegrass (Lolium multiflorum). The method, boiled down: as §3
Turning to `CCOc1cc(F)ccc1-c1sc2cc(C)c(C)cc2c1-c1c(O)c(C)nn(C)c1=O` [5-103], the “K: Italian ryegrass, herbicidal effect grade” value was 1 (Herbicidal rate of 5% or more and less than 20%).

As to `CSc1ccc(-c2oc3ccc(F)cc3c2-c2c(O)c(C)nn(C)c2=O)cc1` [9-037], the “K: Italian ryegrass, herbicidal effect grade” value is 5 (Herbicidal rate of 90% or more (almost completely withered)).

The next experiment relates to redroot pigweed. The experiment in a line: Test Example 4: herbicidal effect by soil treatment (Table 19, symbol N). The note with it: amount of applied herbicide 320 g/ha. It is filed as in vivo, redroot pigweed (Amaranthus retroflexus). The gist of the method:
as §3
Consider `CCOc1cc(F)ccc1-c1sc2cc(C)c(C)cc2c1-c1c(O)c(C)nn(C)c1=O` [5-103], for which the “N: redroot pigweed, herbicidal effect grade” value is 2 (Herbicidal rate of 20% or more and less than 40%).

Turning to `CSc1ccc(-c2oc3ccc(F)cc3c2-c2c(O)c(C)nn(C)c2=O)cc1` [9-037], the “N: redroot pigweed, herbicidal effect grade” value is 5 (Herbicidal rate of 90% or more (almost completely withered)).

Another experiment deals with Japanese bulrush. The experiment in a line: Test Example 2: herbicidal activity, application during weed generation under submerged conditions (Table 17, symbol B). It is filed as in vivo, Japanese bulrush (Schoenoplectus juncoides). The note with it: AAH 320 g/ha; application during weed generation, submerged conditions. The gist of the method:
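Mixed weed seedlings in alluvial soil under a 4 cm water layer, greenhouse-grown at 25–30° C. Compound given as a diluted emulsion into the floodwater at the 1–2 leaf stage; response graded after three weeks.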
Consider `CCOc1cc(F)ccc1-c1sc2cc(C)c(C)cc2c1-c1c(O)c(C)nn(C)c1=O` [5-103], for which the “herbicidal effect rating, B: Japanese bulrush” value is 3 (Herbicidal rate of 40% or more and less than 70%).

As to `CSc1ccc(-c2oc3ccc(F)cc3c2-c2c(O)c(C)nn(C)c2=O)cc1` [9-037], the “herbicidal effect rating, B: Japanese bulrush” value was 2 (Herbicidal rate of 20% or more and less than 40%).

A further experiment relates to lambsquarters. Put plainly: Test Example 5: herbicidal effect by foliage application, plastic box (Table 20, symbol O). It counts as in vivo, lambsquarters (Chenopodium album). The conditions noted are these: foliage application, 320 g/ha, three weeks after application. The gist of the method:
as §2
Take `CCOc1cc(F)ccc1-c1sc2cc(C)c(C)cc2c1-c1c(O)c(C)nn(C)c1=O` [5-103]: the “herbicidal effect on lambsquarters (O)” value is 4 (Herbicidal rate of 70% or more and less than 90%).

As for `CSc1ccc(-c2oc3ccc(F)cc3c2-c2c(O)c(C)nn(C)c2=O)cc1` [9-037], the “herbicidal effect on lambsquarters (O)” value was 5 (Herbicidal rate of 90% or more (almost completely withered)).

A further experiment concerns wild oat. Put plainly: Test Example 5: herbicidal effect by foliage application, plastic box (Table 20, symbol I). It counts as in vivo, wild oat (Avena fatua). The conditions noted are these: foliage application, 320 g/ha, three weeks after application. The method, boiled down:
as §2
On to `CCOc1cc(F)ccc1-c1sc2cc(C)c(C)cc2c1-c1c(O)c(C)nn(C)c1=O` [5-103], for which the “herbicidal effect on wild oat (I)” value is 4 (Herbicidal rate of 70% or more and less than 90%).

With `CSc1ccc(-c2oc3ccc(F)cc3c2-c2c(O)c(C)nn(C)c2=O)cc1` [9-037], the “herbicidal effect on wild oat (I)” value was 5 (Herbicidal rate of 90% or more (almost completely withered)).

The next experiment concerns Chinese sprangletop. The experiment in a line: Test Example 3: herbicidal effect by foliage application, Wagner pot (Table 18, symbol D). The note with it: 320 g/ha. It counts as in vivo, chinese sprangletop (Leptochloa chinensis). The gist of the method:
as §4
For the compound `CCOc1cc(F)ccc1-c1sc2cc(C)c(C)cc2c1-c1c(O)c(C)nn(C)c1=O` [5-103], the “herbicidal effect on Chinese sprangletop (D)” value was 4 (Herbicidal rate of 70% or more and less than 90%).

Staying with this experiment, now noted: amount of applied herbicide 320 g/ha.
In the case of `CSc1ccc(-c2oc3ccc(F)cc3c2-c2c(O)c(C)nn(C)c2=O)cc1` [9-037], the “Herbicidal effect on D (Chinese sprangletop), foliage application” value was 2 (Herbicidal rate of 20% or more and less than 40%).
